Data on 2 compounds can be found in patent US11952384B2, “Anti-tumor compound and preparation method and use thereof” (DUALITY BIOLOGICS (SUZHOU) CO., LTD., priority 2020, dated 2024).

The test system of one data set is JIMT-1 cells. The data set is described as follows: Inhibition of in vitro proliferation of tumor cells by compounds (CTG, 6 days). It counts as cell-based. The note with it: Table 1, Test Example 2.1, small molecule fragments, 6 days of culture, CTG, read-out: JIMT-1 IC50. On the procedure: (§1) To test the inhibitory activity of the pharmaceutical compounds on the in vitro proliferation of NCI-N87, JIMT-1 and MBA-MB-231 tumor cells. The cells were treated with the compounds at different concentrations in vitro, and after 6 days of culture, the proliferation of cells was detected using the CTG (CellTiter-Glo® Luminescent Cell Viability Assay, Promega, Cat. No. G7558) reagent, and the in vitro activity of the compounds was evaluated according to the IC50 value.
(§2) In the following, the test for the inhibition of the in vitro proliferation of NCI-N87 cells was taken as an example to illustrate the method of the present application for testing the inhibitory activity of the compounds of the present application on the in vitro proliferation of tumor cells. The method was also applicable to, but not limited to, the test for the inhibitory activity on the in vitro proliferation of other tumor cells. • 1. Culturing of cells: NCI-N87 cells were cultured in RPMI-1640 medium containing 10% FBS. • 2. Preparation of cells: NCI-N87 cells in logarithmic phase were taken, washed with PBS once, and digested with 2-3 mL of trypsin for 2-3 min. After the cells were digested completely, 10-15 mL of cell culture was added to elute the digested cells. The eluate was centrifuged at 1000 rpm for 5 min, and the supernatant was discarded. The resulting cells were resuspended in 10-20 mL of cell culture to obtain a single cell suspension. • 3. Cell plating: the NCI-N87 single cell suspension was mixed well and adjusted to a viable cell density of 6×10^4 cells/mL with cell culture. The cell suspension with the adjusted density was mixed well and added to a 96-well cell culture plate at 50 μL/well. The culture plate was incubated in an incubator for 18 h (37° C., 5% CO2). • 4. Preparation of compounds: the compounds were dissolved in DMSO to obtain stock solutions at an initial concentration of 10 mM. There were 8 concentrations in total for the small molecule compounds: 300 nM, 100 nM, 30 nM, 10 nM, 3 nM, 1 nM, 0.3 nM, and 0.1 nM. • 5. Sample adding: the prepared samples to be detected at different concentrations were added to the culture plate, and two duplicate wells were set for each sample. The culture plate was incubated in an incubator for 6 days (37° C., 5% CO2). • 6. Color developing: the 96-well cell culture plate was taken out, added with the CTG reagent at 50 μL/well, and incubated at room temperature for 10 min. • 7. Plate reading: the 96-well cell culture plate was taken out, placed in a microplate reader, and measured for the chemiluminescence using the microplate reader. Data Analysis
(§3) Data were processed and analyzed using Microsoft Excel and Graphpad Prism 5.
(§4) To test the inhibitory activity of the pharmaceutical compounds on the in vitro proliferation of NCI-N87, JIMT-1 and MBA-MB-231 tumor cells. The cells were treated with compounds at different concentrations in vitro, and after 6 days of culture, the proliferation of cells was detected using CTG (CellTiter-Glo® Luminescent Cell Viability Assay, Promega, Cat. No. G7558) reagents, and the in vitro activity of the compounds was evaluated according to the IC50 value. • 1. Culturing of cells: NCI-N87/JIMT-1/MBA-MB-231 cells were cultured in RPMI-1640 medium containing 10% FBS. • 2. Preparation of cells: NCI-N87/JIMT-1/MBA-MB-231 cells in logarithmic phase were taken, washed with PBS once, and digested with 2-3 mL of trypsin for 2-3 min. After the cells were digested completely, 10-15 mL of cell culture was added to elute the digested cells. The eluate was centrifuged at 1000 rpm for 5 min, and the supernatant was discarded. The resulting cells were resuspended in 10-20 mL of cell culture to obtain a single cell suspension. • 3. Cell plating: the NCI-N87/JIMT-1/MBA-MB-231 single cell suspension was mixed well and adjusted to a viable cell density of 6×10^4 cells/mL with cell culture. […]

The next data set relates to NCI-N87 cells. The description is as above. It counts as cell-based. To be noted: small molecule fragments, 6 days of culture, CTG, read-out: NCI-N87 IC50. How it is done:
as §1, §2, §3, §4

In a further data set the target is T1, P-gp (Homo sapiens, UniProt P08183).
T1 construct: endogenous in cells; host or cells: Caco-2
T1 sequence (P08183 whole entry): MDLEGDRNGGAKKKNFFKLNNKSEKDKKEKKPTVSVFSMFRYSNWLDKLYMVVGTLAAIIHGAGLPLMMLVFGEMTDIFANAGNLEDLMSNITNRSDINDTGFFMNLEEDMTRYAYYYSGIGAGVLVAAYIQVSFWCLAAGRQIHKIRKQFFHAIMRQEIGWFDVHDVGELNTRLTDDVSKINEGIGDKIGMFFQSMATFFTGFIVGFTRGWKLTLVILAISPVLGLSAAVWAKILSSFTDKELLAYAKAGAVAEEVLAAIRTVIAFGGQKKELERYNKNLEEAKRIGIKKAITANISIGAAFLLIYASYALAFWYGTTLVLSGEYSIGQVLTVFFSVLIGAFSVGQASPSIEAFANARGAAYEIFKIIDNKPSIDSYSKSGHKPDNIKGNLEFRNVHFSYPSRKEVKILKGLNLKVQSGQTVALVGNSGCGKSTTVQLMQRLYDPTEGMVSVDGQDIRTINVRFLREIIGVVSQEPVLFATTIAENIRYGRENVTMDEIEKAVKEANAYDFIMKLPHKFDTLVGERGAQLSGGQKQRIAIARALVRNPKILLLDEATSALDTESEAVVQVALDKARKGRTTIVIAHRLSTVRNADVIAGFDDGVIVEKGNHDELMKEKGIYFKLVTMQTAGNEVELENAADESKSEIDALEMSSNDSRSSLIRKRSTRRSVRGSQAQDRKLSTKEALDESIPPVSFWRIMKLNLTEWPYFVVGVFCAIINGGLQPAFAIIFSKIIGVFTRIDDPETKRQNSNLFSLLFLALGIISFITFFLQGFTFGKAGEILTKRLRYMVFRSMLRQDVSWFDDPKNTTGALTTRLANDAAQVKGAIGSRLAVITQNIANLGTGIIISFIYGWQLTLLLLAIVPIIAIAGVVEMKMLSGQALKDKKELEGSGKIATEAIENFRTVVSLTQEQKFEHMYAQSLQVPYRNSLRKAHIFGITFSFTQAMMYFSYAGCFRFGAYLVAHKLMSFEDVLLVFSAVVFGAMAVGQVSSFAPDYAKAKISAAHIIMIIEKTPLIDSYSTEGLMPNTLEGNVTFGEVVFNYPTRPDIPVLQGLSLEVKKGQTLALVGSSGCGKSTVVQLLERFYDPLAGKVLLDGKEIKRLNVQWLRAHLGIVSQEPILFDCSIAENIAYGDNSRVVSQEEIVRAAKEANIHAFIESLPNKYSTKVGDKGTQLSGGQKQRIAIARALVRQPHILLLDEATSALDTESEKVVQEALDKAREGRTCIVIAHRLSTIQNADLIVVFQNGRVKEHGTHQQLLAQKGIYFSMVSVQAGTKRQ
The data set is described as follows: Study on transporter substrates in Caco-2 cell model. It counts as in vitro ADME. The note with it: Caco-2. On the procedure: The resistance of each well was recorded. […] 2. […] The plate was vortexed for 10 min. The samples were centrifuged. […] HBSS was added to the basolateral compartment. […] 3. Data Analysis
Data were calculated using Microsoft Excel.

For data set [1], the target named is T2, BCRP (Homo sapiens, UniProt Q9UNQ0).
T2 sequence (Q9UNQ0 1-655): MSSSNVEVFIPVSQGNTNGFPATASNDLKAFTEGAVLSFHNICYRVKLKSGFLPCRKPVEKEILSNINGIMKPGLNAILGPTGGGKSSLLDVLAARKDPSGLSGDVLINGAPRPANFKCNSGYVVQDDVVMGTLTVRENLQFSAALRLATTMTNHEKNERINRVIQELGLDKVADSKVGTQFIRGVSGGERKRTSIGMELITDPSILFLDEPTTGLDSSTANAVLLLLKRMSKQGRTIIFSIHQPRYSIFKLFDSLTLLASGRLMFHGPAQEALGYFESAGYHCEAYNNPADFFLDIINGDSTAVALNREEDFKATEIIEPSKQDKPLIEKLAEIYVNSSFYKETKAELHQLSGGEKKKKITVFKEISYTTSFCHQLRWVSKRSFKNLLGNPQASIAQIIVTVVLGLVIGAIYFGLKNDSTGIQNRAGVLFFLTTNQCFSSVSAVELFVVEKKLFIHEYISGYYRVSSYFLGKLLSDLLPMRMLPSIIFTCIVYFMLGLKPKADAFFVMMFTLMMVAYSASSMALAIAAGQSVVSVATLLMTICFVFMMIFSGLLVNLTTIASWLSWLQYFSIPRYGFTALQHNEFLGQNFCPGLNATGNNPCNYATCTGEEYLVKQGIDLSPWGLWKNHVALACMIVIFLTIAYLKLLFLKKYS
The note with it: Caco-2.
Protocol: (§5) To investigate whether the compounds of the present invention is a substrate for efflux transporters P-gp and BCRP in a Caco-2 cell model, thereby providing preclinical basis for analyzing the drug-drug interaction in pharmacokinetics.
(§6) • 1) Cell culture medium was added to each well of the Transwell. The HTS Transwell plate was incubated under conditions of 37° C. and 5% CO2 for 1 h prior to cell inoculation. • 2) Caco-2 cells were diluted with culture medium and the cell suspension was dispensed into filter wells of the 96-well HTS Transwell plate. […] The cell culture medium was changed periodically. • 3) Monolayer cell resistance was measured using the Millicell Epithelial Volt-Ohm detection system. The resistance of each well was recorded. After all wells were measured, the Transwell plate was put back into the incubator. TEER of each well was calculated according to the formula. The TEER value of each well should be greater than 230 ohm·cm^2. […] Preparation for Transporter Test • 1) The Caco-2 plate was taken out from the incubator. The monolayer cells were washed with pre-heated HBSS twice. The plate was then incubated at 37° C. for 30 min. • 2) Stock solutions of the compounds were prepared in DMSO and diluted with HBSS to obtain working solutions. Digoxin was used as a reference substrate for P-gp and rosuvastatin was used as a reference substrate for BCRP. Propranolol was used as a high permeability marker. • 3) The working solution (without inhibitor) was added to the Transwell insert (apical compartment) to determine the rate of drug transport in the apical to basolateral direction. The transfer buffer was added to the wells in the receiver plate (basolateral compartment). The working solution (without inhibitor) was added to the receiver plate wells (basolateral compartment) to determine the rate of drug transport in the basolateral to apical direction. The Transwell insert (apical compartment) was filled with the transport buffer. PSC833 was added to the apical and basolateral compartments to determine the rate of drug transport in the presence of P-gp inhibitors. • 4) The sample was transferred from the working solution to the quenching solution, and a sample with a time of 0 was prepared. The Transwell plate was incubated under conditions of 37° C. and 5% CO2 for 2 h. • 5) At the end of the transport cycle, the samples were transferred from the apical and basolateral wells into a new 96-well plate. Cold acetonitrile or methanol containing the appropriate internal standard (IS) was added to each well of the plate. The plate was vortexed for 10 min. The samples were centrifuged. The supernatant of an aliquot was mixed with an appropriate amount of ultrapure water (depending on the LC-MS/MS signal response and peak shape) prior to the LC-MS/MS analysis. • 6) The stock solution of lucifer yellow in DMSO was prepared and diluted with HBSS to determine the amount of lucifer yellow leakage after a 2-hour transport period. The lucifer yellow solution was added to the apical compartment. HBSS was added to the basolateral compartment. The plate was incubated at 37° C. for 30 min, and a certain amount of the solution was directly taken from the apical and basolateral wells and transferred to a new 96-well plate. The lucifer yellow fluorescence was measured in a fluorescence plate reader with 485 nm excitation and 530 nm emission (to monitor monolayer integrity).
(§7) Data were calculated using Microsoft Excel. The percentage of the compound remaining at each time point was estimated by determining the peak area ratio from the extracted ion chromatogram.
(§8) For drug transport analysis in the Caco-2 cell model, the apparent permeability coefficient (Papp) can be calculated according to the following formula, in cm/s:
(§9) [formula] • wherein the concentration C is in nM, the volume V is in μL, the time T is in s, and the area S is in cm^2.
(§10) The recovery rate is calculated according to the following formula:

Data set [2] has as its target T2, BCRP. Put plainly: in vitro.
Protocol: as §5, §6, §7, §8, §9, §10
In data set [3] the target is T2, BCRP. The data set is described as follows: Study on transporter substrates in Caco-2 cell model. The note with it: human, Caco-2.
Protocol: as §5, §6, §7, §8, §9, §10
Another data set has as its system MDA-MB-231 cells. Put plainly: Inhibition of in vitro proliferation of tumor cells by compounds (CTG, 6 days). It counts as cell-based. The note with it: Homo sapiens, MDA-MB-231, 144 h, Table 3, Test Example 2.3; small molecule fragments; 6 days of culture, CTG; read-out: MDA-MB-231 IC50. On the procedure: To test the inhibitory activity of the pharmaceutical compounds on the in vitro proliferation of NCI-N87, JIMT-1 and MBA-MB-231 tumor cells. The cells were treated with compounds at different concentrations in vitro, and after 6 days of culture, the proliferation of cells was detected using CTG (CellTiter-Glo® Luminescent Cell Viability Assay, Promega, Cat. No. G7558) reagents, and the in vitro activity of the compounds was evaluated according to the IC50 value. • 1. Culturing of cells: NCI-N87/JIMT-1/MBA-MB-231 cells were cultured in RPMI-1640 medium containing 10% FBS. • 2. Preparation of cells: NCI-N87/JIMT-1/MBA-MB-231 cells in logarithmic phase were taken, washed with PBS once, and digested with 2-3 mL of trypsin for 2-3 min. After the cells were digested completely, 10-15 mL of cell culture was added to elute the digested cells. The eluate was centrifuged at 1000 rpm for 5 min, and the supernatant was discarded. The resulting cells were resuspended in 10-20 mL of cell culture to obtain a single cell suspension. • 3. Cell plating: the NCI-N87/JIMT-1/MBA-MB-231 single cell suspension was mixed well and adjusted to a viable cell density of 6×10^4 cells/mL with cell culture. The cell suspension with the adjusted density was mixed well and added to a 96-well cell culture plate at 50 μL/well. The culture plate was incubated in an incubator for 18 h (37° C., 5% CO2). • 4. Preparation of compounds: the compounds were dissolved in DMSO to obtain stock solutions at an initial concentration of 10 mM. There were 8 concentrations in total for the small molecule compounds: 300 nM, 100 nM, 30 nM, 10 nM, 3 nM, 1 nM, 0.3 nM, and 0.1 nM. • 5. Sample adding: the prepared samples to be detected at different concentrations were added to the culture plate, and two duplicate wells were set for each sample. The culture plate was incubated in an incubator for 6 days (37° C., 5% CO2). • 6. Color developing: the 96-well cell culture plate was taken out, added with the CTG reagent at 50 μL/well, and incubated at room temperature for 10 min. • 7. Plate reading: the 96-well cell culture plate was taken out, placed in a microplate reader, and measured for the chemiluminescence using the microplate reader. Data analysis: data were processed and analyzed using Microsoft Excel and Graphpad Prism 5.

The next data set has as its system Colo205 cells. The data set is described as above. It counts as cell-based. The note with it: Homo sapiens, COLO 205, 144 h, Table 4, Test Example 2.4, small molecule fragments, 6 days of culture. On the procedure: To test the inhibitory activity of the pharmaceutical compounds on the in vitro proliferation of NCI-N87 and Colo205 tumor cells. The cells were treated with compounds at different concentrations in vitro, and after 6 days of culture, the proliferation of cells was detected using CTG (CellTiter-Glo® Luminescent Cell Viability Assay, Promega, Cat. No. G7558) reagents, and the in vitro activity of the compounds was evaluated according to the IC50 value. • 1. Culturing of cells: NCI-N87/Colo205 cells were cultured in RPMI-1640 medium containing 10% FBS. • 2. Preparation of cells: NCI-N87/Colo205 cells in logarithmic phase were taken, washed with PBS once, and digested with 2-3 mL of trypsin for 2-3 min. After the cells were digested completely, 10-15 mL of cell culture was added to elute the digested cells. The eluate was centrifuged at 1000 rpm for 5 min, and the supernatant was discarded. […] Sample adding: the prepared samples to be detected at different concentrations were added to the culture plate, and two duplicate wells were set for each sample. […] Plate reading: the 96-well cell culture plate was taken out, placed in a microplate reader, and measured for the chemiluminescence using the microplate reader. Data analysis: data were processed and analyzed using Microsoft Excel and Graphpad Prism 5.

Molecules are shown by their SMILES. Read-outs that look alike come from different tables or passages of the source.

The term IC50 denotes the concentration that gives 50% inhibition. A word on the Papp A→B: it is the apparent permeability from the apical to the basolateral side of a cell layer. Read a high Papp A→B as fast passage. What is called Papp B→A is how fast a substance crosses the layer from the basolateral side. By efflux ratio is commonly meant a quotient of directional permeabilities that is used to spot active efflux. For `CC[C@@]1(O)C(=O)OCc2c1cc1n(c2=O)Cc2c-1nc1cc(F)c(C)c3c1c2[C@@H](N1CCC(O)C1=O)CC3` (some centres unmarked) [P-I-1], the IC50 in the data set on JIMT-1 cells (Homo sapiens, JIMT-1, 144 h) is 23.7 nM; in the data set with JIMT-1 cells, 21.8 nM; in the data set with NCI-N87 cells (Homo sapiens, NCI-N87, 144 h, Table 1, Test Example 2.1), 97.3 nM; in the data set with NCI-N87 cells (Table 1, Test Example 2.1), 61.6 nM. For the same compound, the P-gp substrate entry on P-gp was “neither transporter P-gp substrates nor transporter BCRP substrates”. The “Papp (A-B) (10^−6, cm/s)” value on BCRP [1] is recorded as 0.21 10^−6, cm/s. Further, the “Papp (B-A) (10^−6, cm/s)” value at BCRP [1] is recorded as 4.94 10^−6, cm/s. Besides, the Papp A→B at 2 h at BCRP [2] (Caco-2, Papp (A-B) (10^−6, cm/s)) was found to be 0.13 ×10⁻⁶ cm/s. The same compound gave a Papp B→A at 2 h at BCRP [2] (Caco-2, Papp (B-A) (10^−6, cm/s)) of 4.06 ×10⁻⁶ cm/s. Further, at BCRP [3] (Caco-2, Efflux ratio, KO143 −), the efflux ratio at 2 h is 32.4. In addition, the recovery at 2 h was found to be 80.5% on BCRP [3] (Caco-2, Recovery rate (%) AP-BL, KO143 −); 76.1% on BCRP [3] (Caco-2, Recovery rate (%) BL-AP, KO143 −); 81.5% on BCRP [3] (Caco-2, with KO143 (concentration not stated), Recovery rate (%) AP-BL, KO143 +); 80.3% at BCRP [3] (Caco-2, with KO143 (concentration not stated), Recovery rate (%) BL-AP, KO143 +).
For `CC[C@@]1(O)C(=O)OCc2c1cc1n(c2=O)Cc2c-1nc1cc(F)c(C)c3c1c2[C@@H](NC(=O)C[C@H](C)O)CC3` [P-III-30, (S)-N-((1S,9S)-9-ethyl-5-fluoro-9-hydroxy-4-methyl-10,13-dioxo-2,3,9,10,13,15-hexahydro-1H,12H-benzo[de]pyrano[3′,4′:6,7]indolizino[1,2-b]quinolin-1-yl)-3-hydroxybutanamide], the IC50 was determined as 3 nM in the data set with NCI-N87 cells (Homo sapiens, NCI-N87, 144 h, Table 4, Test Example 2.4); 28.5 nM in the data set on MDA-MB-231 cells; 9 nM in the data set on Colo205 cells.
